Square brackets hold non-standard residues; d marks the D form.
What was measured:
HeLa-TrkA cells = settings: for activity class in cell survival assay, TrkA: HeLa-TrkA cells, 50 μM compound, with or without 0.2 nM NGF, 48-72 h
Protocol: (§1) Throughout, compounds were tested at 50 μM in TrkA- and C-expressing cells and 0.4 μM in TrkB-expressing cells. […] Samples were tested for promoting cell survival in the absence of NTs (agonism) or in the presence of suboptimal concentrations of NTs whose loops they were designed to mimic (NT potentiation).
(§2) Cells were seeded at a density of 2000 cells per well. Cells were incubated in complete media for 24
(§3) hours. The media was aspirated, the cells washed twice with Dulbecco’s Phosphate Buffered Saline,
(§4) and the media was replaced with serum-free media to induce apoptosis unless otherwise halted.
(§5) Compound was added to cells (50 μM compound to HeLa-TrkA and NIH3T3-TrkC cells, 0.4 μM for
(§6) HEK293-TrkB) alone (agonism) or in the presence of suboptimal neurotrophin (~25 to 30% survival,
(§7) 0.2 nM NGF, 0.6 nM BDNF, or 0.2 nM NT3 for TrkA, B, or C expressing cells respectively). Cell
(§8) survival was measured via alamarBlue assay after 48-72 hours to determine cell viability. Data was
(§9) normalized to DMSO treatment (0%) and optimal neurotrophin (100%, 2.0 nM NGF, 1.0 nM BDNF,
(§10) 2.0 nM NT-3 for TrkA, B, or C expressing cells, respectively).
HeLa-TrkA cells were treated with 50 μM compound with or without suboptimal (0.2 nM) levels of
NGF and cell survival was analyzed after 48-72 hours by the alamarBlue assay. Data was
normalized to DMSO (0%) and 2.0 nM NGF (100%). Data is represented as the average of 3-6
(§11) points +/- standard deviation from the mean.
(§12) with a serial dilution of the compound in serum free media with or without suboptimal neurotrophin
(§13) and incubated for 48-72 hours, after which an alamarBlue assay was done to determine cell viability.
(§14) Cell viability was normalized to DMSO (0%) and optimal neurotrophin (100%), depending on cell type.
(§15) EC50 was calculated in GraphPad Prism 10.2 using the dose response “[agonist] vs response –
(§16) Variable slope (four parameters)” function. Data is presented as the mean +/- standard deviation of
an experiment with 3-6 replicates.

[1] = test system: dry eye disease (desiccating stress to the eye); settings: summarised from published work, ref number not given, cited from earlier work
From the text: All of the data for these in vivo assays is now published , and will only be summarized here. […] This negative result is surprising because D3 is a potentiator of NGF in TrkA transfectants.

HEK293-TrkB cells = settings: for activity class in cell survival assay, TrkB: HEK293-TrkB cells, 0.4 μM compound, with or without 0.6 nM BDNF, 48-72 h; for shape of dose-response curve, cell survival: HEK293-TrkB cells with 0.6 nM BDNF (suboptimal), EC50s could not be determined
Protocol: as §1
Cell Survival Compound Screen
as §2, §3, §4, §5, §6, §7, §8, §9, §10
Cell Survival of HEK293-TrkB Cells
HEK293-TrkB cells were treated with 0.4 μM compound with or without suboptimal (0.6 nM) levels of
BDNF and cell survival was analyzed after 48-72 hours by the alamarBlue assay. Data was
normalized to DMSO (0%) and 1.0 nM BDNF (100%). Data is represented as the average of 3-6
as §11
Cell Survival Dose Response
The most promising compounds from the screen were selected for each cell line. Cells were treated
as §12, §13, §14, §15, §16
an experiment with 3-6 replicates.

NIH3T3-TrkC cells = settings: for activity class in cell survival assay, TrkC: NIH3T3-TrkC cells, 50 μM compound, with or without 0.2 nM NT-3, 48-72 h
Protocol: as §1
Cell Survival Compound Screen
as §2, §3, §4, §5, §6, §7, §8, §9, §10
Cell Survival of NIH3T3-TrkC Cells
NIH3T3-TrkC cells were treated with 50 μM compound with or without suboptimal (0.2 nM) levels of
NT-3 and cell survival was analyzed after 48-72 hours by the alamarBlue assay. Data was
normalized to DMSO (0%) and 2.0 nM NT-3 (100%). Data is represented as the average of 3-6
as §11
Cell Survival Dose Response
as §12, §13, §14, §15, §16
an experiment with 3-6 replicates.

EC50 (HeLa-TrkA cells) | Molecule | activity class in cell survival assay, TrkA (HeLa-TrkA cells) | activity class in cell survival assay, TrkB (HEK293-TrkB cells) | activity class in cell survival assay, TrkC (NIH3T3-TrkC cells) | corneal barrier function ([1]; murine dry eye disease model) | shape of dose-response curve, cell survival (HEK293-TrkB cells) | other results
7.1 µM | CC[C@H](C)[C@@H]1NC(=O)[C@H](CC(N)=O)NC(=O)[C@H](C(C)C)n2cc(nn2)C[C@@H](C(=O)N[C@@H](CCCCNS(=O)(=O)c2cccc3c(N(C)C)cccc23)C(=O)O)NC(=O)[C@H](Cc2ccccc2)NC(=O)[C@H](C(C)C)NC(=O)[C@H](CO)NC(=O)[C@H](CC(N)=O)NC(=O)[C@H](CC(N)=O)NC1=O [1a(ii)ext] | selective TrkA agonists |  |  |  |  | 
10.2 µM | CC[C@H](C)[C@@H]1NC(=O)[C@@H]2C[C@@H](CN2)NC(=O)[C@H](CO)NC(=O)[C@H](CC(N)=O)NC(=O)[C@H](CC(N)=O)NC1=O [3a(ii)] | selective TrkA agonists |  |  |  |  | activity in the preliminary in vivo screen ([1]; murine dry eye disease model): no significant activity
 | CC[C@H](C)[C@@H]1NC(=O)[C@H](CC(=O)O)NC(=O)[C@@H]2C[C@@H](CN2)NC(=O)CNC(=O)[C@H](CCCNC(=N)N)NC1=O [3c(i)] | agonist of TrkA | potentiator of BDNF and NT-3 | potentiator of BDNF and NT-3 | increased corneal barrier function |  | EC50 (HEK293-TrkB cells): 1 µM; maximum activity, % of the maximum survival imparted by BDNF (HEK293-TrkB cells; 24 h): ~53%; maximum activity, % survival compared with that imparted by NT-3 (NIH3T3-TrkC cells; 24 h): ~52%
 | M DSKKR (sidechain bridge or staple) [1b(iii)] |  | BDNF potentiators |  |  | bell-shaped dose–response curve | 
 | cyclo(DSKK) [3b(iii)] |  | BDNF potentiators |  |  | bell-shaped dose–response curve | 
 | cyclo([dN]-Lys-Val) [4c(iii)nKV] |  |  | selectively modulate cell survival through the TrkC receptors | increased corneal barrier function |  | EC50 (NIH3T3-TrkC cells; read-out: EC50, cell survival of TrkC cells with suboptimal NT-3 (unit inferred), NIH3T3-TrkC cells with 0.2 nM NT-3, sigmoidal dose response, 48-72 h, alamarBlue): 8.7 µM; NFκB activation (marker of inflammation) ([1]; biochemical experiments in the dry eye studies): decreases NFκB activation; conjunctival goblet cell densities ([1]; murine dry eye disease model, further studies): increase conjunctival goblet cell densities
